Reference: patent publication US10464925B2, “Methods to induce targeted protein degradation through bifunctional molecules” (Dana-Farber Cancer Institute, Inc., priority 2015, dated 2019)
Where two headings read alike, the source gives them in different places. Each block holds one molecule with its values, some of them ahead of it.

Tests used:
[1] = tested on: IKZF1 adjoined to nanoluciferase (Nluc); assay: IKZF1 Dual Luciferase Assay; type: cell-based; parameters: Nluc/Fluc IKZF1 Max Degradation: unit: %; conditions: 293 FT cells, 4 hours; for IC50: read-out: Nluc/Fluc IKZF1 IC50
[2] = target: T1, CRBN-DDB1 (Homo sapiens, UniProt Q96SW2); assay: CRBN-DDB1 Ligand-Displacement AlphaScreen Assay (thalidomide competition); type: binding;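 also: streptavidin donor and nickel chelate acceptor bead proximity signal after 30 min incubation, normalized with no-protein background as 0% and DMSO wells as 100% activity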
T1 construct: 6xHis (given for the complex); made in house; host or cells: Sf9 cells (Invitrogen), pFastBac

[3] = target: T2, CRBN (Homo sapiens, UniProt Q96SW2); assay: Intracellular CRBN Engagement Assay (dFKBP7 rescue); type: cell-based; conditions: competition with 80 nM dFKBP7, 3 hours; read-out: FKBP7 rescue (EC50)
T2 construct: endogenous in cells

[4] = target: BRD4 (Homo sapiens, UniProt O60885); assay: BRD4 AlphaScreen; type: binding; parameters: […]; His tag (inferred from capture on Ni-coated acceptor beads)
[5] = tested on: DND41; assay: Cell viability, ATPlite 48 hours, DND41; type: cell-based; conditions: DND41 cells
[6] = tested on: MOLT4; assay: Cell viability, ATPlite 48 hours, MOLT4; type: cell-based; conditions: Homo sapiens, MOLT-4; MOLT4 cells
[7] = tested on: NGP; assay: Cell viability, ATPlite 72 hours; type: cell-based; conditions: NGP cells, Table 4; read-out: IC50 (nM) NGP
[8] = tested on: 797; assay: Cell viability, 797 cells (Table 4); type: cell-based; conditions: read-out: IC50 (nM) 797
[9] = target: BRDT (Homo sapiens, UniProt Q58F21); assay: BRDT IC50 (Table 4); type: binding; conditions: read-out: IC50 (nM) BRDT
[10] = tested on: CUTL1; assay: Cell viability, ATPlite 48 hours, CUTLL1; type: cell-based; conditions: CUTL1 cells
[11] = target: T3, BRD4 adjoined to nanoluciferase (Nluc) (Homo sapiens, UniProt O60885+Q96SW2); assay: BRD4 Dual Luciferase Assay; type: cell-based; conditions: for Emax: BRD4 remaining at Emax, read-out: BRD4− Emax (percent remaining);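 as to all read-outs here: transduced reporter cells exposed to compound for 4 h, then Nluc and Fluc luminescence read, each normalized to DMSO controls and expressed as Nluc/Fluc ratio per well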
T3 construct: expressed in transfected cells

[12] = biotin-thalidomide competition, read-out: THAL ALPHA (IC50)
[13] = 4 hours, read-out: max degradation (dual luc)
[14] = read-out: BRD4 max degradation(%) Dual Luciferase

IC50 [1]: > 50 µM
IC50 ([2]; read-out: CRBN alpha IC50): 0.608 µM
SMILES: O=C1CCC(N2C(=O)c3cccc(F)c3C2=O)C(=O)N1 [Compound D-14, 2-(2,6-dioxopiperidin-3-yl)-4-fluoroisoindoline-1,3-dione]

IC50 [1]: > 50 µM
IC50 ([2]; read-out: CRBN alpha IC50): 3.25 µM
SMILES: O=C1CCC(N2C(=O)c3cccc([N+](=O)[O-])c3C2=O)C(=O)N1 [Compound D-10, 2-(2,6-dioxopiperidin-3-yl)-4-nitroisoindoline-1,3-dione]

IC50 ([2]; read-out: CRBN alpha IC50): 0.0253 µM
SMILES: CC(C)Nc1cccc2c1C(=O)N(C1CCC(=O)NC1=O)C2=O [Compound D-18, 2-(2,6-dioxopiperidin-3-yl)-4-(isopropylamino)isoindoline-1,3-dione]
Nluc/Fluc IKZF1 Max Degradation [1]: 41.1

EC50 [3]: 227 µM
IC50 ([4]; read-out: BRD4 Alpha (IC50)): 8830 nM
IC50 ([4]; read-out: IC50 (nM) BRD4): 8830 nM
IC50 [2, 12]: 0.0124 µM
SMILES: Cc1noc(C)c1-c1ccc(-c2nc3cnccn3c2NCC(=O)NCCCOCCOCCOCCCNC(=O)COc2cccc3c2C(=O)N(C2CCC(=O)NC2=O)C3=O)cc1 (stereo not shown) [dBET14]

IC50 [6]: 13500 nM
IC50 [9]: 217 nM
SMILES: Cc1sc2c(c1C)C(c1ccc(C#N)cc1)=N[C@@H](CC(=O)NCCCCNC(=O)COc1cccc3c1C(=O)N(C1CCC(=O)NC1=O)C3=O)c1nnc(C)n1-2 (stereo partly shown) [dBET17]
IC50 [5]: 17300 nM
IC50 [7]: > 20000 nM
IC50 [8]: 5020 nM
IC50 [10]: > 20000 nM

IC50 ([2]; read-out: CRBN alpha IC50): 0.375 µM
SMILES: O=C1CCC(N2C(=O)c3cccc(CNC(=O)C4CC4)c3C2=O)C(=O)N1 [Compound D-22, N-((2-(2,6-dioxopiperidin-3-yl)-1,3-dioxoisoindolin-4-yl)methyl)cyclopropanecarboxamide]
Nluc/Fluc IKZF1 Max Degradation [1]: 52.96

Conc@Emax [11]: 50 µM
Dmax [11, 13]: 78.5%
Emax [11]: 26.2%
Dmax [11, 14]: 79%
EC50 [3]: 3140 µM
IC50 [2, 12]: 0.0265 µM
SMILES: Cc1c(C(=O)NCCCCNC(=O)COc2cccc3c2C(=O)N(C2CCC(=O)NC2=O)C3=O)sc2c1C(c1ccc(Cl)cc1)=N[C@@H](CC(=O)NCCCN1CCN(C)CC1)c1nnc(C)n1-2 (stereo partly shown) [dBET30]

IC50 ([2]; read-out: CRBN alpha IC50): 0.0714 µM
SMILES: O=C1CCC(N2C(=O)c3cccc(NCc4ccccc4)c3C2=O)C(=O)N1 [Compound D-16, 4-(benzylamino)-2-(2,6-dioxopiperidin-3-yl)isoindoline-1,3-dione]
Nluc/Fluc IKZF1 Max Degradation [1]: 67.23

IC50 [1]: > 50 µM
IC50 ([2]; read-out: CRBN alpha IC50): 0.493 µM
SMILES: O=C1CCC(N2C(=O)c3ccc(F)cc3C2=O)C(=O)N1 [Compound D-24, 2-(2,6-dioxopiperidin-3-yl)-5-fluoroisoindoline-1,3-dione]

IC50 ([2]; read-out: CRBN alpha IC50): 0.147 µM
SMILES: Cc1cccc2c1C(=O)N(C1CCC(=O)NC1=O)C2=O [Compound D-19, 2-(2,6-dioxopiperidin-3-yl)-4-methylisoindoline-1,3-dione]
Nluc/Fluc IKZF1 Max Degradation [1]: 63.37

Dmax [11, 13]: < 5%
Emax [11]: 91.2%
Dmax [11, 14]: > 5%
EC50 [3]: 7.73 µM
IC50 [2, 12]: 0.0171 µM
SMILES: Cc1sc2c(c1C)C(c1ccc(Cl)cc1)=N[C@@H](CC(=O)NCCCCOc1cccc3c1C(=O)N(C1CCC(=O)NC1=O)C3=O)c1nnc(C)n1-2 (stereo partly shown) [dBET28]

Dmax [11, 13]: 9.96%
Dmax [11, 14]: < 10%
IC50 ([4]; read-out: BRD4 Alpha (IC50)): 4990 nM
IC50 ([4]; read-out: IC50 (nM) BRD4): 4990 nM
SMILES: Cc1cnc(Nc2ccc(N3CCN(C(=O)CCC(=O)NCCCCCCCCNC(=O)COc4cccc5c4C(=O)N(C4CCC(=O)NC4=O)C5=O)CC3)cc2)nc1Nc1cccc(S(=O)(=O)NC(C)(C)C)c1 (stereo not shown) [dBET33]
IC50 [8]: 4000 nM

Dmax [11, 13]: 50%
Dmax [11, 14]: 50%
IC50 ([4]; read-out: BRD4 Alpha (IC50)): 3300 nM
IC50 ([4]; read-out: IC50 (nM) BRD4): 3300 nM
SMILES: Cc1cnc(Nc2ccc(N3CCN(C(=O)CCC(=O)NCCCCNC(=O)COc4cccc5c4C(=O)N(C4CCC(=O)NC4=O)C5=O)CC3)cc2)nc1Nc1cccc(S(=O)(=O)NC(C)(C)C)c1 (stereo not shown) [dBET32]
IC50 [8]: 5730 nM

SMILES: O=C1CCC(N2C(=O)c3ccc([N+](=O)[O-])cc3C2=O)C(=O)N1 [Compound D-2, 2-(2,6-dioxopiperidin-3-yl)-5-nitroisoindoline-1,3-dione]
IC50 [1]: > 50 µM
IC50 ([2]; read-out: CRBN alpha IC50): 4.13 µM

IC50 ([2]; read-out: CRBN alpha IC50): 0.646 µM
SMILES: CC(=O)NCc1cccc2c1C(=O)N(C1CCC(=O)NC1=O)C2=O [Compound D-23, N-((2-(2,6-dioxopiperidin-3-yl)-1,3-dioxoisoindolin-4-yl)methyl)acetamide]
Nluc/Fluc IKZF1 Max Degradation [1]: 59.03
